Results on one molecule are retold here after ChEMBL document CHEMBL4342507, “Targeting YAP Degradation by a Novel 1,2,4-Oxadiazole Derivative via Restoration of the Function of the Hippo Pathway” (ACS Med Chem Lett, 2020).

Calls of active or inactive are those of the source. No cut-off for these calls is given here.

The test system of data set [1] is SUM-159-PT. The data set can be described thus: Downregulation of TAZ protein expression in human SUM159 cells at 0.25 to 1.5 uM measured after 12 to 24 hrs by immunoblotting analysis. The data set is classed as functional, cell-based. (In general: In western blotting, separated proteins are transferred to a membrane and probed.)
In data set [2] the target is T1, Serine/threonine-protein kinase LATS1 (Homo sapiens) (UniProt O95835).
T1 sequence (whole entry): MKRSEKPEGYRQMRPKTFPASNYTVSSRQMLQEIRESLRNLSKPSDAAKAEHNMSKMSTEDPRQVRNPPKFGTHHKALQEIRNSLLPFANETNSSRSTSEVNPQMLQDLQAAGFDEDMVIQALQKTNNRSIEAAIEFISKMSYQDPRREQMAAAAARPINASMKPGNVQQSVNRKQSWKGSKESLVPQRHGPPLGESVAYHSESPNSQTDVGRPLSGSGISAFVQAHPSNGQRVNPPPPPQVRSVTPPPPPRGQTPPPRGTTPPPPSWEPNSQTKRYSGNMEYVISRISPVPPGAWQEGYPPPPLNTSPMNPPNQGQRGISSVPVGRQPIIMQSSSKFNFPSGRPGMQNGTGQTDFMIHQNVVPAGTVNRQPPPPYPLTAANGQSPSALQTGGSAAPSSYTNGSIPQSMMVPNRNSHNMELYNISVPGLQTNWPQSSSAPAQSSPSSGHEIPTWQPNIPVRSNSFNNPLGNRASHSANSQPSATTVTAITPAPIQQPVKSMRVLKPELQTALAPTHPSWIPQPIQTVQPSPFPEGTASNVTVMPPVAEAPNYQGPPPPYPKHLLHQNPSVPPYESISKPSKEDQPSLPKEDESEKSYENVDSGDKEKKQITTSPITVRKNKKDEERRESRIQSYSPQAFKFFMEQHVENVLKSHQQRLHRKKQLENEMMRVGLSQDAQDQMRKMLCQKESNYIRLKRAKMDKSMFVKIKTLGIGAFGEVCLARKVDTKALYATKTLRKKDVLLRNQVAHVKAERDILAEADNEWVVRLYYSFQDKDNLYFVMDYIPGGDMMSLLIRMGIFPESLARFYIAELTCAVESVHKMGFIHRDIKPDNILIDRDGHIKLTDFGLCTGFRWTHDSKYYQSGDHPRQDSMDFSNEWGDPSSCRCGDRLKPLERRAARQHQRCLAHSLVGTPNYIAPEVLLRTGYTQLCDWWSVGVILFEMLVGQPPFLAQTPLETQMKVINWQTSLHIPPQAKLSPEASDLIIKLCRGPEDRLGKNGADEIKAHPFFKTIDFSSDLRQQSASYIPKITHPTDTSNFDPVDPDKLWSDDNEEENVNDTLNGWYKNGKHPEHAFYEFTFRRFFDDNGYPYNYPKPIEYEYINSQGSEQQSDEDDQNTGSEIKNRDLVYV
The data set can be described thus: Activation of LATS1 in human SUM159 cells assessed as increase in YAP phosphorylation at Ser397 at 0.25 to 1.5 uM measured after 24 to 48 hrs by immunoblotting analysis. The data set is classed as cell-based.

The target in data set [3] is T1, Serine/threonine-protein kinase LATS1 (Homo sapiens). Kind of data set: Activation of LATS1 in human SUM159 cells assessed as increase in phosphorylation at Thr1079 residue measured after 12 hrs by Western blot analysis. The data set is classed as cell-based.
Data set [4] relates to Mus musculus. Kind of data set: Downregulation of C-myc protein expression in tumor of athymic Nude-Foxn1nu BALB/c mouse xenografted with human MDA-MB-231 cells at 200 mg/kg, po administered once daily via gavage for 40 days by immunoblotting analysis. The data set is classed as functional, organism-based.
The test system of data set [5] is PC-3. Kind of data set: Cytotoxicity against human PC3 cells assessed as reduction in cell viability at 0.2 to 1.2 uM by MTT assay. The data set is classed as functional, cell-based. The following applies: TDE = time-dependent effect.
Data set [6] deals with T1, Serine/threonine-protein kinase LATS1 (Homo sapiens). Kind of data set: Activation of LATS1 in human MDA-MB-231 cells assessed as induction of YAP degradation by measuring suppression of YAP protein expression at 0.25 to 1.5 uM measured after 12 to 24 hrs by immunoblotting analysis. The data set is classed as cell-based.
Data set [7] has as its system MDA-MB-231. Kind of data set: Downregulation of TAZ protein expression in human MDA-MB-231 cells at 0.25 to 1.5 uM measured after 24 to 48 hrs by immunoblotting analysis. The data set is classed as functional, cell-based.
The target of data set [8] is T1, Serine/threonine-protein kinase LATS1 (Homo sapiens). Kind of data set: Activation of LATS1 in human PC3 cells assessed as increase in phosphorylation at Ser909 residue measured after 24 hrs by Western blot analysis. The data set is classed as cell-based.
The target is the same in data set [9]. Kind of data set: Activation of LATS1 in human MDA-MB-231 cells assessed as induction of YAP degradation by measuring suppression of YAP protein expression at 0.5 uM pretreated with compound for 24 hrs followed by incubation with protein synthesis inhibitor, CHX up to 48 hrs by Western blot analysis. The data set is classed as cell-based.
Data set [10] addresses Serine/threonine-protein kinase 3/4 (Homo sapiens) (UniProt Q13043+Q13188). The data set can be described thus: Activation of MST1/2 in human MDA-MB-231 cells assessed as effect on phosphorylation at T183/T180 residues at 0.25 to 1.5 uM measured after 24 hrs by Western blot analysis. The data set is classed as cell-based.
The species named for another data set is Homo sapiens. The data set can be described thus: Activation of MOB in human SUM159 cells assessed as phosphorylation at Thr35 residue at 0.25 to 1.25 uM measured after 12 hrs by Western blot analysis. The data set is classed as cell-based.
For data set [11], the system named is Mus musculus. Kind of data set: Downregulation of YAP protein expression in tumor of athymic Nude-Foxn1nu BALB/c mouse xenografted with human MDA-MB-231 cells at 200 mg/kg, po administered once daily via gavage for 40 days by immunoblotting analysis. The data set is classed as functional, organism-based.
A short description of data set [12]: Acute toxicity in athymic Nude-Foxn1nu BALB/c mouse xenografted with human MDA-MB-231 cells assessed as effect on serum creatinine level at 200 mg/kg, po administered once daily via gavage for 14 days. The conditions noted are these: in vivo, 336 h. The data set is classed as organism-based. In general terms: Xenograft models place foreign cells or tissue in a host animal.

The subject of data set [13] is PC-3. The data set can be described thus: Downregulation of TAZ protein expression in human PC3 cells at 0.25 to 1.5 uM measured after 24 to 48 hrs by immunoblotting analysis. The data set is classed as functional, cell-based.
Data set [14] addresses Epidermal growth factor receptor (Homo sapiens) (UniProt P00533). Kind of data set: Induction of EGFR degradation in human MDA-MB-231 cells assessed as suppression of EGFR expression at 0.1 to 0.8 uM by Western blot analysis. The data set is classed as cell-based.
The subject of data set [15] is PC-3. The data set can be described thus: Cytotoxicity against human PC3 cells assessed as reduction in cell viability measured after 72 hrs by MTT assay. The data set is classed as functional, cell-based.
Another data set concerns PC-9. The data set can be described thus: Cytostatic activity against human PC9 cells assessed as cell viability at concentration of greater than IC50 measured up to 72 hrs by MTT assay. The data set is classed as functional, cell-based. On the technique in general: Tetrazolium dyes change colour on reduction, which living cells bring about.
Data set [16] deals with T1, Serine/threonine-protein kinase LATS1 (Homo sapiens). The data set can be described thus: Activation of LATS1 in triple-negative human SUM159 cells transfected with YAP/TAZ-TEAD reporter plasmid containing 8xGTIIC binding site and cotransfected with pCMV-Luc assessed as suppression of YAP/TAZ luciferase activity measured after 12 hrs by dual luciferase reporter assay.

Data set [17] relates to SUM-159-PT. Kind of data set: Effect on MOB expression in human SUM159 cells at 0.25 to 1.5 uM measured after 12 hrs by Western blot analysis. The data set is classed as functional, cell-based.
Data set [18] concerns MDA-MB-231. The data set can be described thus: Cytotoxicity against human MDA-MB-231 cells ectopically overexpressed with wild type FLAG-tagged YAP assessed as reduction in cell viability at 0.2 to 1.2 uM measured after 72 hrs by MTT assay. The data set is classed as functional, cell-based.
Data set [19] relates to MDA-MB-231. Kind of data set: Effect on MST2 expression in human MDA-MB-231 cells at 0.25 to 1.5 uM measured after 24 hrs by Western blot analysis. The data set is classed as functional, cell-based.

Chain of Epidermal growth factor receptor (Homo sapiens) (P00533 whole entry): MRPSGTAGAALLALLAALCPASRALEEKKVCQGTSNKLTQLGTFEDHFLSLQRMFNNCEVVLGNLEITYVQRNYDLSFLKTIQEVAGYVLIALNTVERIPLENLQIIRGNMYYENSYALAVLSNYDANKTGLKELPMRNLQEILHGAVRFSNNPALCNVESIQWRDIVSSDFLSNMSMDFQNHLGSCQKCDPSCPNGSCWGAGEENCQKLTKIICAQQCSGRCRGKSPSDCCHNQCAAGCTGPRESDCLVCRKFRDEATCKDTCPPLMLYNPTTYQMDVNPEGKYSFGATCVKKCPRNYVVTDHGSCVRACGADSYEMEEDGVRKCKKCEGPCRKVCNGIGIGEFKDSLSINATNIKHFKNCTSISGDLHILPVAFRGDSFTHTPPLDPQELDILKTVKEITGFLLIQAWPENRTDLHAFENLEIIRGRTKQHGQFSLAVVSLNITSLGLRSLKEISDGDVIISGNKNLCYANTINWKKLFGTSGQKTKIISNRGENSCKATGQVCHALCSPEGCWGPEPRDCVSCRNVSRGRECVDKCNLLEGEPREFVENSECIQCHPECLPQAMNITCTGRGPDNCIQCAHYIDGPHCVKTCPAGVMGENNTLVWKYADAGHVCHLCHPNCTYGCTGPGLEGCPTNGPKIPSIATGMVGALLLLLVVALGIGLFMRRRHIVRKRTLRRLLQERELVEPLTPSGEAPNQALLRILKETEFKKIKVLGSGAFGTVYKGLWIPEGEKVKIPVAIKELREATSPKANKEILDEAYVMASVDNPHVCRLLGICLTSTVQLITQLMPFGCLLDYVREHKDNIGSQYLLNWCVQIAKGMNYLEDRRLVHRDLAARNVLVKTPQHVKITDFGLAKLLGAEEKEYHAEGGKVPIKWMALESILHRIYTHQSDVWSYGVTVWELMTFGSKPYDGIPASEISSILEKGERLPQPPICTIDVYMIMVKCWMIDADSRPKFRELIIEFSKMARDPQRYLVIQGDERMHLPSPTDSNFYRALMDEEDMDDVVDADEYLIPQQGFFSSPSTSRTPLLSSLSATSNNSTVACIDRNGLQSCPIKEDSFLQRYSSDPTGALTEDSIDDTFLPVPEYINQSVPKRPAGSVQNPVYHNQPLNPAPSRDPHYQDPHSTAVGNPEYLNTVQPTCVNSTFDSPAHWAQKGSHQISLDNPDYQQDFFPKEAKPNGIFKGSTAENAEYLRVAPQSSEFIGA
Chain of Serine/threonine-protein kinase 3/4 (Homo sapiens) (Q13043 whole entry, looked up): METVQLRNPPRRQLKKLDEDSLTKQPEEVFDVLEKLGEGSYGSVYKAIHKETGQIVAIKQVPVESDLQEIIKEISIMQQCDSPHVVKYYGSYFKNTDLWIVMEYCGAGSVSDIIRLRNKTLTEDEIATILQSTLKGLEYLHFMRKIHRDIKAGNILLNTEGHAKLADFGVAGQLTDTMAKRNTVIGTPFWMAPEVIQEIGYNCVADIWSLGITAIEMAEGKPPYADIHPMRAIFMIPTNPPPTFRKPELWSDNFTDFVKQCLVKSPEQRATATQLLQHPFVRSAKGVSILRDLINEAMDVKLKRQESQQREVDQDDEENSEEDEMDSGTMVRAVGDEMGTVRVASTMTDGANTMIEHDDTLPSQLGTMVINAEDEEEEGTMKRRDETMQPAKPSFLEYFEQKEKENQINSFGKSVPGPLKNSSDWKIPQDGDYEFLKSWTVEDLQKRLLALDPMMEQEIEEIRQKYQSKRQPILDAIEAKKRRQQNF
Chain of Serine/threonine-protein kinase 3/4 (Homo sapiens) (Q13188 whole entry, looked up): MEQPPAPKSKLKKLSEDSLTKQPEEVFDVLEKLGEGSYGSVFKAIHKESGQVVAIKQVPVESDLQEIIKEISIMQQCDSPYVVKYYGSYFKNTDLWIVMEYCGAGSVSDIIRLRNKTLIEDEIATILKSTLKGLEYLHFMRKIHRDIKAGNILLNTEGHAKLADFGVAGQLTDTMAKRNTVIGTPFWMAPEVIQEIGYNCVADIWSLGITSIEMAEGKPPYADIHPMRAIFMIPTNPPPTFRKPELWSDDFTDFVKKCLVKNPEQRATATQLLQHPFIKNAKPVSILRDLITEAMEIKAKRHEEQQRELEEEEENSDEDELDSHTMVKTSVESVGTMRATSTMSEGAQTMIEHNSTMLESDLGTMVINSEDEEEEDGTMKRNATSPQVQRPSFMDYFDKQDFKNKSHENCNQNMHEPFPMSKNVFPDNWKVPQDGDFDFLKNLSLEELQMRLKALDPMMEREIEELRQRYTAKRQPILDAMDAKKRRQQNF

`CC(=O)Nc1ccc(NC(=O)Nc2cccc(-c3nc(-c4ccc(NC(=O)c5cccnc5)cc4Cl)no3)c2)cc1C(F)(F)F`: the inhibition result in the data set with SUM-159-PT [1], with Mus musculus [4], with MDA-MB-231 [7] and in the data set with Mus musculus [11] was “Active” each time. Further, the outcome (in data set [2]; in data set [10]; in the data set listed under Homo sapiens; in data set [14]; in the data set with SUM-159-PT [17]; in the data set with MDA-MB-231 [18]) was inactive. The outcome with MDA-MB-231 [19] was inactive. Also, the Activity result in [3] is “Dose-dependent effect”; in the data set on PC-3 [5], “Tde”; in data set [8], “Dose-dependent effect”; in data set [12] it was “Non-Toxic”; in the data set with PC-3 [15] it was “Dose-dependent effect”; in data set [16], “Dose-dependent effect”. The result (in [6]; in data set [9]; with PC-9) was Active. In addition, the inhibition result in the data set with PC-3 [13] was “inactive”. In addition, the IC50 with PC-3 [15] (PC-3, 72 h) lay in the range of 400 to 800 nM.

Broadly, the IC50 is the concentration needed to halve the response being measured.
